Test results taken from patent publication US4582824A, “Method for inhibiting activities of platelet activating factor” (Takeda Chemical Industries, Ltd., priority 1983, dated 1986).

What follows are compounds tested on PAF-induced platelet aggregation (washed PRP) (assay: Activity to inhibit PAF in platelet aggregation (washed PRP)). Conditions: Oryctolagus cuniculus, test compound 3×10^-5 M, PAF 3×10^-7 M, 37° C., read-out: Inhibition rate.
Assay type: cell-based, rabbit
Method: Using an injection syringe containing a 3.15% solution of citric acid (in a ratio of 1 part per 9 parts of blood) as an anticoagulant, the blood was directly collected from a male rabbit. Then, at room temperature, the blood was centrifuged at 1,000 r.p.m. for 10 minutes to harvest a platelet rich plasma (PRP). This PRP was further centrifuged at 1,400 r.p.m. for 15 minutes to give a platelet pellet. The pellet was suspended in Ca^++ -free Tyrode solution (containing 0.25% of gelatin) to give a washed PRP. This washed PRP (250 μl) was stirred at 37° C. for 2 minutes, then 25 μl of a 0.2 to 0.5 mM Ca^++ solution was added, and the mixture was further stirred for 30 seconds. Then, the test compound was added to the above platelet preparation to a level of 3×10^-5 M. After stirring the mixture for 2 minutes, 3×10^-7 M of PAF was added. The degree of platelet aggregation was determined with a platelet aggregometer (Rika Denki). The activity of the test compound was estimated from the inhibition rate as compared with the maximum optical transmission (maximum aggregation) of control PRP by PAF.
In the case of `CCCCCCCCCCNC(=O)OCC(COP(=O)([O-])OCC[n+]1ccsc1)OC` (stereo not shown) [Production Example 3, 3-(N-Decylcarbamoyloxy)-2-methoxypropyl 2-thiazolioethyl phosphate], the inhibition at 30 µM is reported as 12%.
With `CCCCCCCCCCCCCCCCCCNC(=O)OCC(COP(=O)([O-])OCC[n+]1csc(CCO)c1C)OC` (stereo not shown) [Production Example 4, 3-(N-octadecylcarbamoyloxy)-2-methoxypropyl 2-(4-methyl-5-hydroxyethyl)thiazolioethyl phosphate] the inhibition at 30 µM was 33%.
In the case of `CCCCCCCCCCCCCCCCCCNC(=O)OCC(COP(=O)([O-])OCC[n+]1ccc2ccccc2c1)OC` (stereo not shown) [Production Example 5, 3-(N-Octadecylcarbamoyloxy)-2-methoxypropyl 2-isoquinolinioethyl phosphate], the inhibition at 30 µM is reported as 37%.
Compound `CCCCCCCCCCCCCCCCCNC(=O)OCC(COP(=O)([O-])OCC[n+]1ccsc1)OC` (stereo not shown) [Production Example 12, 2-methoxy-3-heptadecylcarbamoyloxypropyl 2-thiazolioethyl phosphate] has an inhibition at 30 µM of 100%.
Work on `CCCCCCCCCCCCCCCCCCCCCCNC(=O)OCC(COP(=O)([O-])OCC[n+]1ccsc1)OC` (stereo not shown) [Production Example 8, 3-(N-Docosylcarbamoyloxy)-2-methoxypropyl 2-thiazolioethyl phosphate] yielded an inhibition at 30 µM of 24%.
`CCCCCCCCCCCCCCCNC(=O)OCC(COP(=O)([O-])OCC[n+]1ccsc1)OC` (stereo not shown) [Production Example 10, 2-Methoxy-3-pentadecylcarbamoyloxypropyl 2-thiazolioethyl phosphate] gave an inhibition at 30 µM of 100%.
In the case of `CCCCCCCCCCCCCCCCCCNC(=O)OCC(COP(=O)([O-])OCC[n+]1ccsc1)OCc1ccccc1` (stereo not shown) [Production Example 6, 3-(N-Octadecylcarbamoyloxy)-2-benzyloxypropyl 2-thiazolioethyl phosphate], the inhibition at 30 µM is reported as 79%.
`CCCCCCCCCCCCCCCCCCNC(=O)OCC(COP(=O)([O-])OCC[n+]1ccccc1)OCc1ccccc1` (stereo not shown) [Production Example 7, 3-(N-Octadecylcarbamoyloxy)-2-benzyloxypropyl 2-pyridinioethyl phosphate] showed an inhibition at 30 µM of 19%.
Work on `CCCCCCCCCCCCCCCCCCNC(=O)OCC(COP(=O)([O-])OCC[n+]1ccccc1)OC` (stereo not shown) [Production Example 1, 3-(N-Octadecylcarbamoyloxy)-2-methoxypropyl 2-pyridinioethyl phosphate] yielded an inhibition at 30 µM of 95%.
`CCCCCCCCCCCCCCCCNC(=O)OCC(COP(=O)([O-])OCC[n+]1ccsc1)OC` (stereo not shown) [Production Example 11, 2-Methoxy-3-hexadecylcarbamoyloxypropyl 2-thiazolioethyl phosphate] showed an inhibition at 30 µM of 100%.
